From PubChem BioAssay (NCI)
Several values for one entry are separate records, joined by “and”; a condition that tells them apart may be missing. Identical values can stand only once.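 Test compounds were applied to cells in 96-well plates for 48 hours at 5 doses. TGI is the concentration that stops growth completely.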

Columns and labels:
Assay in all cases: NCI anticancer screen, dose series, 48 h
U251 CNS = system: U251 CNS
M19-MEL melanoma = system: M19-MEL melanoma
XF 498 CNS = system: XF 498 CNS
786-0 renal = system: 786-0 renal
ACHN renal = system: ACHN renal
OVCAR-3 ovarian = system: OVCAR-3 ovarian
SF-268 CNS = system: SF-268 CNS
DMS 273 small cell lung = system: DMS 273 small cell lung
NCI-H522 lung = system: NCI-H522 lung
HOP-62 NSCLC = system: HOP-62 NSCLC
OVCAR-4 ovarian = system: OVCAR-4 ovarian
OVCAR-5 ovarian = system: OVCAR-5 ovarian
SK-MEL-28 melanoma = system: SK-MEL-28 melanoma
SR leukemia = system: SR leukemia
A498 renal = system: A498 renal
HCT-116 colon = system: HCT-116 colon
KM20L2 colon = system: KM20L2 colon
SNB-75 CNS = system: SNB-75 CNS
NCI-H23 lung = system: NCI-H23 lung
HOP-92 NSCLC = system: HOP-92 NSCLC
SK-MEL-5 melanoma = system: SK-MEL-5 melanoma
RXF-631 renal = system: RXF-631 renal
SNB-78 CNS = system: SNB-78 CNS
TK-10 renal = system: TK-10 renal
NCI-H226 lung = system: NCI-H226 lung
SW-620 colon = system: SW-620 colon
SN12C renal = system: SN12C renal
COLO 205 colon = system: COLO 205 colon
LOX IMVI melanoma = system: LOX IMVI melanoma
CAKI-1 renal = system: CAKI-1 renal
SK-OV-3 ovarian = system: SK-OV-3 ovarian
LXFL 529 NSCLC = system: LXFL 529 NSCLC
K-562 leukemia = system: K-562 leukemia
RPMI-8226 leukemia = system: RPMI-8226 leukemia
SF-539 CNS = system: SF-539 CNS
A549 NSCLC = system: A549 NSCLC
OVCAR-8 ovarian = system: OVCAR-8 ovarian
DLD-1 colon = system: DLD-1 colon
DMS 114 small cell lung = system: DMS 114 small cell lung
NCI-H460 lung = system: NCI-H460 lung
UO-31 renal = system: UO-31 renal
HCT-15 colon = system: HCT-15 colon
SF-295 CNS = system: SF-295 CNS
MALME-3M melanoma = system: MALME-3M melanoma
KM12 colon = system: KM12 colon
UACC-62 melanoma = system: UACC-62 melanoma
IGROV1 ovarian = system: IGROV1 ovarian
HT29 colon = system: HT29 colon
SNB-19 CNS = system: SNB-19 CNS
RXF 393 renal = system: RXF 393 renal
HOP-18 NSCLC = system: HOP-18 NSCLC
HCC-2998 colon = system: HCC-2998 colon
UACC-257 melanoma = system: UACC-257 melanoma
MOLT-4 leukemia = system: MOLT-4 leukemia
EKVX NSCLC = system: EKVX NSCLC
M14 melanoma = system: M14 melanoma
HL-60(TB) leukemia = system: HL-60(TB) leukemia
SK-MEL-2 melanoma = system: SK-MEL-2 melanoma
CCRF-CEM leukemia = system: CCRF-CEM leukemia

Question: Which TGI (U251 CNS) does the source give for `O=S(=O)(O)SC/C=C\CSS(=O)(=O)O` here?
Answer: > 100 µM

Question: And the TGI (M19-MEL melanoma)?
Answer: > 100 µM

Question: And the TGI (XF 498 CNS)?
Answer: > 100 µM

Question: And the TGI (786-0 renal)?
Answer: > 100 µM

Question: What about the TGI (ACHN renal) of the same molecule?
Answer: > 100 µM

Question: And the TGI (OVCAR-3 ovarian)?
Answer: > 100 µM

Question: What about the TGI (SF-268 CNS) of the same molecule?
Answer: > 100 µM

Question: And the TGI (DMS 273 small cell lung)?
Answer: > 100 µM

Question: What about the TGI (NCI-H522 lung) of the same molecule?
Answer: > 100 µM

Question: What about the TGI (HOP-62 NSCLC) of the same molecule?
Answer: > 100 µM

Question: And the TGI (OVCAR-4 ovarian)?
Answer: > 100 µM

Question: And the TGI (OVCAR-5 ovarian)?
Answer: > 100 µM

Question: What about the TGI (SK-MEL-28 melanoma) of the same molecule?
Answer: > 100 µM

Question: And the TGI (SR leukemia)?
Answer: > 100 µM

Question: What about the TGI (A498 renal) of the same molecule?
Answer: > 100 µM

Question: And the TGI (HCT-116 colon)?
Answer: > 100 µM

Question: What about the TGI (KM20L2 colon) of the same molecule?
Answer: > 100 µM

Question: What about the TGI (SNB-75 CNS) of the same molecule?
Answer: > 100 µM

Question: And the TGI (NCI-H23 lung)?
Answer: > 100 µM

Question: What about the TGI (HOP-92 NSCLC) of the same molecule?
Answer: > 100 µM

Question: What about the TGI (SK-MEL-5 melanoma) of the same molecule?
Answer: > 100 µM

Question: What about the TGI (RXF-631 renal) of the same molecule?
Answer: > 100 µM

Question: What about the TGI (SNB-78 CNS) of the same molecule?
Answer: > 100 µM

Question: What about the TGI (TK-10 renal) of the same molecule?
Answer: > 100 µM

Question: And the TGI (NCI-H226 lung)?
Answer: > 100 µM

Question: And the TGI (SW-620 colon)?
Answer: > 100 µM

Question: What about the TGI (SN12C renal) of the same molecule?
Answer: > 100 µM

Question: What about the TGI (COLO 205 colon) of the same molecule?
Answer: > 100 µM

Question: And the TGI (LOX IMVI melanoma)?
Answer: > 100 µM

Question: What about the TGI (CAKI-1 renal) of the same molecule?
Answer: > 100 µM

Question: And the TGI (SK-OV-3 ovarian)?
Answer: > 100 µM

Question: What about the TGI (LXFL 529 NSCLC) of the same molecule?
Answer: > 100 µM

Question: And the TGI (K-562 leukemia)?
Answer: > 100 µM

Question: And the TGI (RPMI-8226 leukemia)?
Answer: > 100 µM

Question: What about the TGI (SF-539 CNS) of the same molecule?
Answer: > 100 µM

Question: What about the TGI (A549 NSCLC) of the same molecule?
Answer: > 100 µM

Question: And the TGI (OVCAR-8 ovarian)?
Answer: > 100 µM

Question: And the TGI (DLD-1 colon)?
Answer: > 100 µM

Question: What about the TGI (DMS 114 small cell lung) of the same molecule?
Answer: > 100 µM

Question: What about the TGI (NCI-H460 lung) of the same molecule?
Answer: > 100 µM

Question: And the TGI (UO-31 renal)?
Answer: > 100 µM

Question: And the TGI (HCT-15 colon)?
Answer: > 100 µM

Question: What about the TGI (SF-295 CNS) of the same molecule?
Answer: > 100 µM

Question: What about the TGI (MALME-3M melanoma) of the same molecule?
Answer: > 100 µM

Question: And the TGI (KM12 colon)?
Answer: > 100 µM and 61.2 µM

Question: What about the TGI (UACC-62 melanoma) of the same molecule?
Answer: > 100 µM

Question: And the TGI (IGROV1 ovarian)?
Answer: > 100 µM

Question: And the TGI (HT29 colon)?
Answer: > 100 µM

Question: What about the TGI (SNB-19 CNS) of the same molecule?
Answer: > 100 µM

Question: What about the TGI (RXF 393 renal) of the same molecule?
Answer: > 100 µM

Question: And the TGI (HOP-18 NSCLC)?
Answer: > 100 µM

Question: What about the TGI (HCC-2998 colon) of the same molecule?
Answer: > 100 µM

Question: What about the TGI (UACC-257 melanoma) of the same molecule?
Answer: > 100 µM

Question: And the TGI (MOLT-4 leukemia)?
Answer: > 100 µM

Question: What about the TGI (EKVX NSCLC) of the same molecule?
Answer: > 100 µM

Question: What about the TGI (M14 melanoma) of the same molecule?
Answer: > 100 µM

Question: And the TGI (HL-60(TB) leukemia)?
Answer: > 100 µM

Question: How did the TGI (U251 CNS) turn out when `CCOC(=O)C1=C(NC(C)(C)C)OC/C1=N\NC(=O)Cc1ccccc1` was run?
Answer: > 100 µM

Question: What about the TGI (M19-MEL melanoma) of the same molecule?
Answer: > 100 µM

Question: What about the TGI (XF 498 CNS) of the same molecule?
Answer: > 100 µM

Question: What about the TGI (786-0 renal) of the same molecule?
Answer: > 100 µM

Question: And the TGI (ACHN renal)?
Answer: > 100 µM

Question: What about the TGI (OVCAR-3 ovarian) of the same molecule?
Answer: > 100 µM

Question: And the TGI (SF-268 CNS)?
Answer: > 100 µM

Question: And the TGI (DMS 273 small cell lung)?
Answer: > 100 µM

Question: What about the TGI (NCI-H522 lung) of the same molecule?
Answer: > 100 µM

Question: What about the TGI (HOP-62 NSCLC) of the same molecule?
Answer: > 100 µM

Question: And the TGI (OVCAR-4 ovarian)?
Answer: > 100 µM

Question: And the TGI (OVCAR-5 ovarian)?
Answer: > 100 µM

Question: And the TGI (SK-MEL-28 melanoma)?
Answer: > 100 µM

Question: What about the TGI (SR leukemia) of the same molecule?
Answer: > 100 µM

Question: And the TGI (A498 renal)?
Answer: > 100 µM

Question: What about the TGI (HCT-116 colon) of the same molecule?
Answer: > 100 µM

Question: And the TGI (KM20L2 colon)?
Answer: > 100 µM

Question: And the TGI (SNB-75 CNS)?
Answer: > 100 µM

Question: And the TGI (NCI-H23 lung)?
Answer: > 100 µM

Question: What about the TGI (HOP-92 NSCLC) of the same molecule?
Answer: > 100 µM

Question: What about the TGI (SK-MEL-5 melanoma) of the same molecule?
Answer: > 100 µM

Question: What about the TGI (RXF-631 renal) of the same molecule?
Answer: > 100 µM

Question: And the TGI (SNB-78 CNS)?
Answer: > 100 µM

Question: And the TGI (TK-10 renal)?
Answer: > 100 µM

Question: What about the TGI (NCI-H226 lung) of the same molecule?
Answer: > 100 µM

Question: What about the TGI (SW-620 colon) of the same molecule?
Answer: > 100 µM

Question: What about the TGI (SN12C renal) of the same molecule?
Answer: > 100 µM

Question: What about the TGI (COLO 205 colon) of the same molecule?
Answer: > 100 µM

Question: What about the TGI (LOX IMVI melanoma) of the same molecule?
Answer: > 100 µM

Question: And the TGI (CAKI-1 renal)?
Answer: > 100 µM

Question: What about the TGI (SK-OV-3 ovarian) of the same molecule?
Answer: > 100 µM

Question: What about the TGI (LXFL 529 NSCLC) of the same molecule?
Answer: > 100 µM

Question: What about the TGI (K-562 leukemia) of the same molecule?
Answer: > 100 µM

Question: And the TGI (SK-MEL-2 melanoma)?
Answer: > 100 µM

Question: What about the TGI (SF-539 CNS) of the same molecule?
Answer: > 100 µM

Question: What about the TGI (A549 NSCLC) of the same molecule?
Answer: > 100 µM

Question: And the TGI (OVCAR-8 ovarian)?
Answer: > 100 µM

Question: What about the TGI (DLD-1 colon) of the same molecule?
Answer: > 100 µM

Question: What about the TGI (DMS 114 small cell lung) of the same molecule?
Answer: > 100 µM

Question: What about the TGI (NCI-H460 lung) of the same molecule?
Answer: > 100 µM

Question: And the TGI (UO-31 renal)?
Answer: > 100 µM

Question: And the TGI (HCT-15 colon)?
Answer: > 100 µM

Question: What about the TGI (SF-295 CNS) of the same molecule?
Answer: > 100 µM

Question: What about the TGI (MALME-3M melanoma) of the same molecule?
Answer: > 100 µM

Question: And the TGI (KM12 colon)?
Answer: > 100 µM

Question: And the TGI (UACC-62 melanoma)?
Answer: > 100 µM

Question: What about the TGI (IGROV1 ovarian) of the same molecule?
Answer: > 100 µM

Question: And the TGI (HT29 colon)?
Answer: > 100 µM

Question: What about the TGI (SNB-19 CNS) of the same molecule?
Answer: > 100 µM

Question: What about the TGI (CCRF-CEM leukemia) of the same molecule?
Answer: > 100 µM

Question: What about the TGI (RXF 393 renal) of the same molecule?
Answer: > 100 µM

Question: What about the TGI (HOP-18 NSCLC) of the same molecule?
Answer: > 100 µM

Question: And the TGI (HCC-2998 colon)?
Answer: > 100 µM

Question: What about the TGI (UACC-257 melanoma) of the same molecule?
Answer: > 100 µM

Question: What about the TGI (MOLT-4 leukemia) of the same molecule?
Answer: > 100 µM

Question: And the TGI (EKVX NSCLC)?
Answer: > 100 µM

Question: And the TGI (M14 melanoma)?
Answer: > 100 µM

Question: And the TGI (HL-60(TB) leukemia)?
Answer: > 100 µM
